Results taken from the supplement of paper PMC11061612.

Key:
Assay in all cases: Bliss excess, mean over the matrix (fraction); higher = more synergy
[1] = system: RCC10RGB (Kidney Carcinoma)
Summary of the method: (§1)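 Cell lines in DMEM/F12 or RPMI with 10% FBS were plated in 1536-well plates, held 24 hours at 37°C, 5% CO2, then given two-drug dose matrices for 72 hours (DMSO typically 0.2%). Viability was read by CellTiter-Glo 2.0 luminescence and scaled as inhibition from 0 (vehicle wells) to 1 (blank wells). Combination Emax is the second-highest inhibition in the matrix; Bliss excess is observed combination effect minus expected EA + EB − EA·EB, EA and EB being single-agent effects.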

[2] = system: SNG-M (Endometrial Carcinoma)
Summary of the method: as §1

HuO9 (Osteosarcoma) = system: HuO9 (Osteosarcoma)
Summary of the method: as §1

[3] = system: SK-LMS-1 (Other Solid Carcinomas)
Summary of the method: as §1

[4] = system: GDM-1 (Acute Myeloid Leukemia)
Summary of the method: as §1

H4 (Low Grade Glioma) = system: H4 (Low Grade Glioma)
Summary of the method: as §1

EW-22 (Ewing's Sarcoma) = system: EW-22 (Ewing's Sarcoma)
Summary of the method: as §1

[5] = system: KG-1 (Acute Myeloid Leukemia)
Summary of the method: as §1

[6] = system: MEG-01 (Chronic Myelogenous Leukemia)
Summary of the method: as §1

[7] = system: SLVL (B-Cell Non-Hodgkin's Lymphoma)
Summary of the method: as §1

[8] = system: EFM-192A (Breast Carcinoma)
Summary of the method: as §1

[9] = system: TYK-nu (Ovarian Carcinoma)
Summary of the method: as §1

SK-MEL-1 (Melanoma) = system: SK-MEL-1 (Melanoma)
Summary of the method: as §1

MSTO-211H (Mesothelioma) = system: MSTO-211H (Mesothelioma)
Summary of the method: as §1

[10] = system: ETK-1 (Biliary Tract Carcinoma)
Summary of the method: as §1

[11] = system: SNU-61 (Colorectal Carcinoma)
Summary of the method: as §1

D-392MG (Glioblastoma) = system: D-392MG (Glioblastoma)
Summary of the method: as §1

[12] = system: CAL-39 (Other Solid Carcinomas)
Summary of the method: as §1

[13] = system: P31-FUJ (Acute Myeloid Leukemia)
Summary of the method: as §1

[14] = system: SW48 (Colorectal Carcinoma)
Summary of the method: as §1

| Compound | Bliss excess [1] | Bliss excess [2] | Bliss excess (HuO9 (Osteosarcoma)) | Bliss excess [3] | Bliss excess [4] | Bliss excess (H4 (Low Grade Glioma)) | Bliss excess (EW-22 (Ewing's Sarcoma)) | Bliss excess [5] | Bliss excess [6] | Bliss excess [7] | Bliss excess [8] | Bliss excess [9] | Bliss excess (SK-MEL-1 (Melanoma)) | Bliss excess (MSTO-211H (Mesothelioma)) | Bliss excess [10] | Bliss excess [11] | Bliss excess (D-392MG (Glioblastoma)) | Bliss excess [12] | Bliss excess [13] | Bliss excess [14] |
| --- | --- | --- | --- | --- | --- | --- | --- | --- | --- | --- | --- | --- | --- | --- | --- | --- | --- | --- | --- | --- |
| Cc1c2c(nn1C)CSCc1cc(n(C)n1)CSc1cc(c3ccccc3c1)OCCCc1c(C(=O)O)n(C)c3c-2c(Cl)ccc13 [AZD5991] + Cn1cnc2c(F)c(Nc3ccc(Br)cc3Cl)c(C(=O)NOCCO)cc21 [Selumetinib] (first compound max 1 µM, 7x7, partner max 3 µM) | 0.0528 | -0.0258 | -0.0386 | -0.0257 | 0.0387 | -0.0265 | -0.019 | 0.0316 | 0.139 | 0.0516 | -0.0116 | -0.0052 | -0.01 | -0.006 | -0.005 | -0.0079 | 0.0339 | 0.02 | 0.0399 | 0.0102 |
| CN(C)CCCOc1ccc(-c2ccc3ncc4c(c3c2)n(C2CCOCC2)c(=O)n4C)cn1 [AZD0156] + CCN(CCO)CCCOc1ccc2c(Nc3cc(CC(=O)Nc4cccc(F)c4)[nH]n3)ncnc2c1 [AZD2811] (first compound max 1 µM, 7x7, partner max 1 µM) | -0.039 | -0.0218 | -0.009 | 0.0032 | -0.0232 | -0.0077 | 0.005 | -0.0001 | -0.0347 | -0.0768 | -0.0243 | -0.0179 | -0.0356 | -0.0098 | -0.0087 | -0.0339 | -0.0556 | 0.0177 | -0.0314 | -0.0164 |
| Cc1cc2ncnn2cc1Nc1ncc2c(n1)n(C1CCOCC1)c(=O)n2C [AZD7648] + CCN(CCO)CCCOc1ccc2c(Nc3cc(CC(=O)Nc4cccc(F)c4)[nH]n3)ncnc2c1 [AZD2811] (first compound max 10 µM, 7x7, partner max 1 µM) | 0.0069 | 0.0507 | 0.051 | -0.0162 | -0.036 | 0.006 | -0.0261 | 0.0351 | -0.0233 | 0.0756 | -0.0175 | 0.0625 | -0.0162 | 0.0509 | -0.0025 | -0.0383 | -0.0108 | -0.0393 | -0.017 | -0.073 |
| Cc1cc2ncnn2cc1Nc1ncc2c(n1)n(C1CCOCC1)c(=O)n2C [AZD7648] + C[C@@H]1COCCN1C2=NC(=NC(=C2)C3(CC3)[S@](=N)(=O)C)C4=C5C=CNC5=NC=C4 [AZD6738] (first compound max 10 µM, 7x7, partner max 10 µM) | 0.0076 | -0.0217 | -0.0537 | 0.0215 | -0.022 | -0.0116 | 0.0058 | -0.0024 | -0.0473 | -0.0178 | 0.0421 | -0.034 | -0.0388 | 0.0403 | -0.0173 | 0.0199 | 0.0217 | 0.0081 | 0.0131 | -0.0195 |
| CN(CCO)CC[C@H](CSc1ccccc1)Nc1ccc(S(=O)(=O)NC(=O)c2ccc(N3CCC([C@@H](O)c4ccccc4-c4ccc(Cl)cc4)CC3)cc2)cc1S(=O)(=O)C(F)(F)F [AZD4320] + C[C@@H]1COCCN1C2=NC(=NC(=C2)C3(CC3)[S@](=N)(=O)C)C4=C5C=CNC5=NC=C4 [AZD6738] (first compound max 1 µM, 7x7, partner max 10 µM) | -0.0734 | -0.0426 | -0.0242 | -0.0432 | -0.0144 | -0.0249 | 0.0762 | 0.0279 | -0.0267 | 0.0156 | -0.0226 | -0.0115 | -0.0757 | 0.0002 | -0.0463 | -0.0406 | -0.0094 | -0.0685 | -0.0083 | 0.0245 |
| CC(=O)Nc1cccc(-n2c(=O)n(C3CC3)c(=O)c3c(Nc4ccc(I)cc4F)n(C)c(=O)c(C)c32)c1 [Trametinib] + Cc1nc(-c2cn3c(n2)-c2ccc(-c4cnn(C(C)(C)C(N)=O)c4)cc2OCC3)n(C(C)C)n1 [Taselisib] (first compound max 1 µM, 7x7, partner max 10 µM) | -0.0186 | 0.102 | 0.0587 | 0.0854 | 0.0571 | 0.132 | -0.0042 | 0.131 | 0.0324 | 0.134 | 0.0042 | 0.138 | 0.0238 | 0.122 | 0.134 | 0.0995 | 0.137 | 0.0657 | 0.182 | 0.178 |
| CCN(CCO)CCCOc1ccc2c(Nc3cc(CC(=O)Nc4cccc(F)c4)[nH]n3)ncnc2c1 [AZD2811] + C=CCn1c(=O)c2cnc(Nc3ccc(N4CCN(C)CC4)cc3)nc2n1-c1cccc(C(C)(C)O)n1 [AZD1775] (first compound max 1 µM, partner max 1 µM) | -0.0716 | -0.0356 | 0.0204 | 0.0502 | -0.0484 | -0.0637 | 0.0527 | 0.0591 | -0.0323 | -0.04 | -0.0883 | -0.0586 | -0.0323 | 0.0387 | 0.0395 | 0.0108 | -0.0945 | -0.0078 | -0.0615 | -0.013 |
| CCN(CCO)CCCOc1ccc2c(Nc3cc(CC(=O)Nc4cccc(F)c4)[nH]n3)ncnc2c1 [AZD2811] + C[C@@H]1COCCN1C2=NC(=NC(=C2)C3(CC3)[S@](=N)(=O)C)C4=C5C=CNC5=NC=C4 [AZD6738] (first compound max 1 µM, 7x7, partner max 10 µM) | -0.0472 | -0.0273 | -0.0491 | -0.0249 | -0.0749 | -0.0536 | -0.0503 | -0.0332 | -0.0203 | -0.0451 | -0.0201 | -0.0244 | -0.0409 | -0.0279 | -0.0627 | -0.0434 | -0.0537 | 0.0015 | -0.0332 | -0.0228 |
| NC1(C(=O)N[C@@H](CCO)c2ccc(Cl)cc2)CCN(c2ncnc3[nH]ccc23)CC1 [Capivasertib] + CC(=O)c1c(C)c2cnc(Nc3ccc(N4CCNCC4)cn3)nc2n(C2CCCC2)c1=O [Palbociclib] (first compound max 10 µM, 7x7, partner max 10 µM) | -0.0368 | -0.0601 | -0.0311 | 0.0514 | 0.0262 | 0.0014 | -0.0152 | -0.0421 | -0.0355 | -0.024 | -0.0334 | -0.0208 | -0.0307 | -0.0547 | -0.0711 | -0.0289 | 0.0094 | 0.0167 | -0.0807 | -0.0217 |
| CC1(C)CCC(CN2CCN(c3ccc(C(=O)NS(=O)(=O)c4ccc(NCC5CCOCC5)c([N+](=O)[O-])c4)c(Oc4cnc5[nH]ccc5c4)c3)CC2)=C(c2ccc(Cl)cc2)C1 [Venetoclax] + C=CCn1c(=O)c2cnc(Nc3ccc(N4CCN(C)CC4)cc3)nc2n1-c1cccc(C(C)(C)O)n1 [AZD1775] (first compound max 1 µM, partner max 1 µM) | -0.0374 | -0.0002 | 0.0227 | -0.0306 | 0.132 | 0.0732 | 0.139 | 0.201 | 0.0146 | 0.0249 | -0.0253 | -0.107 | -0.0539 | -0.0183 | -0.0661 | -0.0321 | 0.0593 | -0.0308 | 0.0685 | 0.0294 |
| COc1nnc2ccc(N3CCC(c4ccc(OCCN5CCN(C)C(=O)[C@H]5C)cc4)CC3)nn12 [AZD5153] + C=CCn1c(=O)c2cnc(Nc3ccc(N4CCN(C)CC4)cc3)nc2n1-c1cccc(C(C)(C)O)n1 [AZD1775] (first compound max 1 µM, partner max 1 µM) | 0.0177 | 0.0898 | -0.035 | -0.0353 | -0.0247 | -0.0056 | 0.0427 | 0.004 | -0.0693 | -0.142 | -0.0138 | -0.04 | -0.0312 | -0.121 | -0.0736 | -0.0041 | -0.0797 | -0.0493 | -0.0392 | -0.0699 |
| Cc1c2c(nn1C)CSCc1cc(n(C)n1)CSc1cc(c3ccccc3c1)OCCCc1c(C(=O)O)n(C)c3c-2c(Cl)ccc13 [AZD5991] + C[C@@H](Nc1cc(F)cc(F)c1)c1cc(C(=O)N(C)C)cc2c(=O)cc(N3CCOCC3)oc12 [AZD8186] (first compound max 1 µM, 7x7, partner max 3 µM) | -0.0349 | -0.0242 | 0.0127 | -0.0056 | 0.0355 | -0.0054 | -0.0396 | 0.0031 | 0.0019 | -0.0262 | -0.0207 | -0.0118 | -0.0232 | -0.0019 | -0.0221 | -0.0277 | 0.0111 | 0.0117 | -0.041 | -0.0271 |
